The values that follow come from patent US9963476B2, “Antioxidant compound having anti atherosclerotic effect and preparation thereof” (Council of Scientific and Industrial Research, priority 2015, dated 2018).

In series [1] the test system is human aortic endothelial cells (HAEC). Nature of the series: Trypan blue cell viability assay, oxidant-induced endothelial cell death. In kind it is cell-based. To be noted: 2.5 μM, 2 h pretreatment, H2O2 500 μM or Ang-II 500 nM, 24 h. As for the experimental part:
Human aortic endothelial cells (HAECs) were obtained from ATCC (Manassas, Va.) and maintained (37° C. 5% CO2) in basal medium supplemented with 10% FBS, VEGF (5 ng/mL), hEGF (5 ng/mL), hFGF (5 ng/mL), IGF-1 (15 ng/mL), ascorbic acid (50 μg/mL), hydrocortisone (1 μg/mL), amphotericin (15 ng/mL), gentamicin (30 ng/mL) and heparin (0.75 Units/mL). Cells used in this study were between passages 4 and 9. Esculetin, Mito-Esc, TPP and nitric oxide synthase inhibitor (L-NAME) were added 2 h before the addition of H2O2 or Ang-II.
At the end of the treatments, cells were harvested and re-suspended in 0.4% trypan blue (Life Technologies) and percent cell viability was counted using cell countess chamber (Life Technologies).
For this, cells were pretreated for 2 h with either Mito-Esc or esculetin before they were incubated with either H2O2 or Ang-II.

Series [2] has as its system nitric oxide generation in HAEC. The series can be described thus: Intracellular nitric oxide levels by DAF-2DA fluorescence. In kind it is cell-based, human. To be noted: H2O2 500 μM, 2.5 μM, 4 h. As for the experimental part:
Intracellular nitric oxide levels were monitored by using the Diaminofluorescein-diacetate (DAF-2DA) fluorescence probe. After the treatments, cells were washed with DPBS and incubated in fresh culture medium without fetal bovine serum (FBS). DAF-2DA was added at a final concentration of 5 μM, and the cells were incubated for 30 minutes. The cells were washed twice with DPBS and maintained in culture medium. Fluorescence was monitored by using Olympus fluorescence microscope with FITC filter (λex=488 nm and […]). Fluorescence intensity was calculated by Image-Pro plus7.0 software.
To gain mechanistic insight on Mito-Esc-mediated protection of endothelial cells from oxidant-induced endothelial cell death, initially we hypothesized that Mito-Esc may augment intracellular nitric oxide generation. To study this, HAEC were treated with both Mito-Esc and esculetin in the presence or absence of H2O2 for a period of 4 h and nitric oxide (NO) levels were monitored by DAF-2 derived green fluorescence. Previously, it has been shown that DAF-2 forms a fluorescent triazole-type product in the presence of an oxidant derived from nitric oxide and oxygen interaction (Proc. Natl. Acad. Sci. USA 99: 11127-11132; 2002.; Am. J. Physiol. Regul. Integ. Comp. Physiol. 286:R344-R431; 2004). […] Next, we investigated the possible role of endothelial nitric oxide synthase (eNOS) in mediating the Mito-Esc induced NO generation in HAEC. For this, endothelial cells were treated with various concentrations of Mito-Esc (1-5 μM) for a period of 8 h. […] To further substantiate the results of DAF fluorescence, eNOS phosphorylation was measured in HAEC incubated with either with H2O2 or Ang-II for 8 h in cells pretreated with Mito-Esc or native esculetin. It was observed that both H2O2 and Ang-II caused a reduction in Phospho eNOS (Ser-1177) levels (FIG. 4D). Ang-II treatment imposed a drastic inhibition of phospho-eNOS levels when compared to H2O2 treatment in endothelial cells (FIG. 4D).

The test system of another series is HAEC. The series can be described thus: Cellular uptake: Mito-Esc/esculetin quantified by ESI-MS in cytosolic and mitochondrial fractions of HAEC. Format: in vitro ADME, human. To be noted: HAEC, 2.5 μM, 24 h. Here is the method:
After the treatment, cells were washed thrice with PBS. Similarly Mito-Esculetin+ Ang-II treatment group, Ang-II alone treatment group and control Apo E^−/− mice aortic tissue was taken. The isolation of mitochondrial and cytosolic extracts was carried out using a commercially available Proteo Extract Cytosol/Mitochondria Fractionation Kit (Cat. no. QIA88-Merck, USA) according to manufacturer's instructions. Initially, mitochondrial and cytosolic fractions were separated using a commercially available kit as mentioned elsewhere. Mito-Esc was quantified in the mitochondrial and cytosolic fractions obtained from HAEC and aorta of ApoE^−/− mice of different treatment groups as mentioned in Animal Experiments section (Table-1). Electrospray ionization (ESI)-MS. ESI-MS (positive mode) measurements were performed using a quadrupole time-of-flight mass spectrometer (QSTAR XL, Applied Biosystems/MDS Sciex, Foster City, Calif., USA). The data acquisition was under the control of Analyst QS software (Applied Biosystems). For the CID (collision-induced dissociation) experiments, the precursor ions were selected using the quadrupole analyzer and the product ions were analyzed using the TOF analyzer.

In series [3] the test system is caspase-3 and -8 activation in HAEC. The series can be described thus: Caspase-3 and -8 activity in HAEC lysates. To be noted: 2.5 μM pretreatment. In kind it is cell-based, human.
Protocol: HAEC were washed twice with cold DPBS and lysed in buffer containing 10-mM Tris-HCl, 10-mM NaH2PO4/Na2HPO4 (pH, 7.5). 130-mM NaCl. 1% Triton, and 10-mM sodium pyrophosphate. Cell lysates were incubated with either with caspase-3 fluorogenic substrate (N-acetyl-Asp-Glu-Val-Asp-7-amido-4-methylcoumarin) or caspase-8 fluorogenic substrate (N-acetyl-Ileu-Glu-Thr-Asp-7 amido-4-methylcoumarin) at 37° C. for 1 h. The 7-amido-4-methyl-coumarin liberated was measured in a multi mode reader (PerkinElmer) with λex=380 nm and λem=460 nm.
For series [4], the system named is AMPK1-α phosphorylation (Thr-172). Nature of the series: Western blot of AMPK phosphorylation in HAEC. Format: cell-based, human. To be noted: H2O2 500 μM, 2.5 μM, 8 h. Here is the method:
Previously, it was shown that AMPK co-immunoprecipitates with cardiac endothelial NO synthase (eNOS) and phosphorylates Ser-1177 in the presence of Ca^2+-calmodulin (CaM) to activate eNOS both in vitro and during ischaemia in rat hearts (FEBS Lett. (1999) 443:285-289). To test whether Mito-Esc mediates increased phosphorylation of eNOS through AMPK activation, initially, HAEC were treated various concentrations of Mito-Esc (1-5 μM) for 8 h and AMPK1-α phosphorylation (Thr-172) levels were measured. […] Next, we investigated the phospho-AMPK1-α levels in HAEC treated with H2O2 in the presence or absence of either Mito-Esc or native esculetin.

Series [5] deals with Ang-II-induced H2O2 production in HAEC. The series can be described thus: H2O2 levels by Amplex red assay. Format: cell-based, human. To be noted: Ang-II 500 nM, 16 h. Here is the method:
Amplex red reagent was used to detect the released H2O2 from cells. […] Immediately, formation of resorufin fluorescence was measured in multi mode reader (PerkinElmer) with λex=540 and λem=585.
Ang-II is known to increase oxidative stress through increased production of H2O2 (Doughan A K, Harrison D G, Dikalov S I. Circ Res (2008) 102:488-96). […] Further, we assessed the effect of Mito-Esc on H2O2-induced mitochondrial membrane depolarization. HAEC were treated with H2O2 (500 μM) in the presence or absence of Mito-Esc for a period of 16 h and mitochondrial membrane potential was measured using a mitochondrial membrane sensor kit. Mito-Sensor is a cationic dye that fluoresces differently in apoptotic and nonapoptotic cells. […] In apoptotic cells, membrane potentials are altered and the Mito-Sensor dye cannot accumulate in mitochondria and, thus, remain as monomers leading to a green fluorescence.

Series [6] deals with Ang-II-induced atherosclerosis in ApoE−/− mice. The series can be described thus: Serum lipid profile of Ang-II treated ApoE−/− mice. Format: in vivo. The conditions noted are these: serum, ApoE−/− mice, 45 days; Ang-II alone or Ang-II + Mito-Esc.
Protocol: Experiments were conducted in 2-month-old male apolipoprotein E knockout (ApoE^−/−) mice according to the guidelines formulated for care and use of animals in scientific research (ICMR, New Delhi, India) at a CPCSEA (Committee for the Purpose of Control and Supervision of Experiments on Animals) registered animal facility. […] Animals were randomly divided into 3 groups each n=7:1) control 2) Ang-II treatment and 3) Mito-Esculetin+Ang-II treatment. Ang-II and Mito-Esculetin treatment groups received Ang-II (sigma) at a dose of 1.44 mg/kg/day for 6 weeks through sub-cutaneous route where as control group received normal saline. Mito-Esculetin treatment group received the compound at a dose of 0.5 mg/kg/day in normal drinking water. All animals were fed on normal chow throughout the study. After 6 weeks, all groups of animals were sacrificed as per standard protocols for euthanasia.
We further analyzed the vascular remodelling employing histological stains in tissue sections of thoracic aortas. […] In tune with this, we have also measured Mac-3 levels by flow cytometry.

Take `O=c1ccc2cc(O)c(O)cc2o1` [Esculetin, 6,7-dihydroxycoumarin, reference compound]: the “oxidant (H2O2 and Ang-II)-induced endothelial cell death” value in series [1] is given as “but not esculetin significantly inhibited”. Also, in series [2], the “H2O2-mediated depletion of NO levels” value was “did not show any noticeable effect”. The compound also registered a Cytosolic fraction with HAEC of 6249 ± 235 nmol/mg protein. The “H2O2 and Ang-II-induced caspase-3 and -8 activation” value in series [3] was “marginal effect”. The “AMPK1-α phosphorylation in the presence of H2O2” value in series [4] is on record as “significantly decreased”.
As for `c1ccc(P(c2ccccc2)c2ccccc2)cc1` [TPP^+, triphenylphosphonium cation], the “oxidant (H2O2 and Ang-II)-induced endothelial cell death” value in series [1] is recorded as “did not have any appreciable cytotoxic/cytoprotective effect”.
As for “Angiotensin-II (DRVYIHPF; Angiotensin-2; UniProt P01019 25-32, looked up) [Ang-II, inducer of oxidative stress and atherosclerosis in the models, reference compound]”, the “H2O2 generation compared to untreated conditions” value in series [5] is “around 2.7 fold”. Further, in series [6], the HDL stood at 02.21 ± 1.2 mg/dL, the LDL is on record as 423.93 ± 29.6 mg/dL, the “Total Cholesterol” value was 656.19 ± 34.2 mg/dL and the Triglycerides is listed as 234.50 ± 21.5 mg/dL. In addition, in series [6], the VLDL came to 46.9 ± 2.2 mg/dL.
